The source of these data is patent publication US5401762A, “Aminoalkyl-substituted thiazolin-2-ones, the preparation and use thereof” (BASF Aktiengesellschaft, priority 1991, dated 1995).

Structures can show the parent of a compound that is named as a salt.

T1 sequence (P61169 whole entry): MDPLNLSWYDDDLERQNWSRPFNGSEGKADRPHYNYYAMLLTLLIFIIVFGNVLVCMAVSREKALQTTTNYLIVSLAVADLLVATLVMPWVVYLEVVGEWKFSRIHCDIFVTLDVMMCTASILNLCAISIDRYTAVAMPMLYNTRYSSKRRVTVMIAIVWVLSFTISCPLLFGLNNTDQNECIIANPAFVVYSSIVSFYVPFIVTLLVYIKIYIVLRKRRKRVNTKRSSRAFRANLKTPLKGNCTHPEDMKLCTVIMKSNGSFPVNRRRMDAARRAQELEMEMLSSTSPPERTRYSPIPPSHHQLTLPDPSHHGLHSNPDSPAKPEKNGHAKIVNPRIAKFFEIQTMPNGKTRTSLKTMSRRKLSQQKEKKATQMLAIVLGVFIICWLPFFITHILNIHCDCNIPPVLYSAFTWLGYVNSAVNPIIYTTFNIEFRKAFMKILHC

The first experiment has as its target T1, dopamine D2 receptor (Rattus norvegicus, UniProt P61169).
T1 construct: Striata from rats (Sprague Dawley, Charles River) were homogenized immediately after removal; from tissue; host or cells: rat striatum (Sprague Dawley, Charles River), membranes
The experiment in a line: Receptor binding assay: affinity for the dopamine D2 receptor (3H-ADTN displacement, rat striatal membranes).
Conditions: not given
Further details: species or system rat (Sprague Dawley). How it is done:
The effects of the novel compounds can be shown in the receptor binding assay as follows:
Striata from rats (Sprague Dawley, Charles River) were homogenized immediately after removal in 0.32M sucrose solution (0° C.). The homogenate was filtered through gauze, the filtrate was centrifuged at 1000 xg (5 min at 4° C.) and the resulting supernatant was centrifuged at 40000 xg (4° C., 10 min). The residue (membranes) was taken up in incubation buffer (50 mM tris-HCl, 1 mM MgCl2 and 0.1% ascorbic acid, pH 7.4) and incubated at 37° C. for 20 min. The residue was subsequently washed 2×with incubation buffer by resuspension and recentrifugation. The membranes were frozen in portions in liquid nitrogen.
The assay mixtures (1 ml) were composed of membranes (380 μg of protein), 1 nM ^3 H-ADTN (NEN, Dreieich Germany, specific radioactivity 1.4 TBq/mmol) and 0.1 μM SCH 23390 (total binding) or a) with the addition of 50 nM spiperone (non-specific binding) or b) with-test substance. The mixtures were prepared in triplicate.
After the incubation (40 min at 25° C.) the mixtures were filtered through glass fiber filters (Whatman GF/B) and briefly washed with ice-cold washing buffer (Tris-HCl pH 7.4). The radioactivity retained on the filters was determined by liquid scintillation counting. The non-specific binding comprised about 40-50% of the total binding.
The evaluation of the competition plots and the determination of the dissociation constant took place by iterative non-linear regression analysis based on the "ligand" program (Muson and Rodbard: Anal. Biochem. 107 (1980) 220).
Regarding `Cc1[nH]c(=O)sc1CCCN1CC=C(c2ccccc2)CC1` [Example 1, 4-Methyl-5-[3-(1,2,3,6-tetrahydro-4-phenylpyridyl)propyl]-thiazolin-2-one hydrochloride], the Ki (as a rule, a dissociation constant, usually derived from enzyme kinetics or from competition with a known ligand) amounted to 8 nM.

Still in this experiment, the particulars now being: rat striatal membranes (380 μg protein), 1 nM 3H-ADTN, 0.1 μM SCH 23390, 40 min at 25° C., non-specific: 50 nM spiperone; read-out: Affinity of the test substances for the dopamine D2 receptor, Ki.
With `Cc1[nH]c(=O)sc1CCCN1CCN(c2ccccn2)CC1` [Example 2, 4-Methyl-5-[3-(4-pyrid-2-ylpiperazinyl)propyl]thiazolin-2-one dihydrochloride], the Ki stood at 15 nM. The same measure, in the same setting: as for `Cc1[nH]c(=O)sc1CCCN1CCN(c2ncccn2)CC1` [Example 7, 4-Methyl-5-[3-(4-pyrimidin-2-ylpiperazinyl)propyl]thiazolin-2-one dihydrochloride], the figure is 12 nM; as for `CCc1ccccc1N1CCN(CCCc2sc(=O)[nH]c2C)CC1` [Example 10, 4-Methyl-5-[3-(4-(2-ethylphenyl)piperazinyl)propyl]thiazolin-2-one dihydrochloride], 25 nM.

For the compound `CSc1ccccc1N1CCN(CCCc2sc(=O)[nH]c2C)CC1` [Example 12, 4-Methyl-5-[3-(4-(2-methylthiophenyl)piperazinyl)propyl]thiazolin-2-onehydrochloride], the Ki stood at 6 nM. Regarding `Cc1[nH]c(=O)sc1CCCN1CCN(c2cccc(C(F)(F)F)c2)CC1` [Example 13, 4-Methyl-5-[3-(4-(3-trifluoromethylphenyl)piperazinyl)propyl]thiazolin-2-one hydrochloride], the inhibition constant Ki turned out to be 45 nM. For the compound `CCOc1ccccc1N1CCN(CCCc2sc(=O)[nH]c2C)CC1` [Example 14, 4-Methyl-5-[3-(4-(2-ethoxyphenyl)piperazinyl)propyl]thiazolin-2-one dihydrochloride], the Ki was found to be 6 nM. Regarding `Cc1c(CCCN2CCN(c3ccccc3)CC2)sc(=O)n1C` [Example 17, 3,4-Dimethyl-5-[3-(4-phenylpiperazinyl)propyl]thiazolin-2-one dihydrochloride], the Ki was 40 nM.
